# Results published in patent US20240122930A1, “INTEGRIN INHIBITORS AND USES THEREOF IN COMBINATION WITH OTHER AGENTS” (Pliant Therapeutics, Inc., priority 2022, published 2024).
# Entries after “also recorded” stand apart in the source; their conditions may differ.
# What was measured:
# [1] = test system: participants with idiopathic pulmonary fibrosis (IPF); assay: Phase 2a clinical trial ([…]-IPF): Forced Vital Capacity (FVC) spirometry; format: in vivo, human
# Method: Study Design and Objectives. […] At Day 1, baseline values were collected.
# Data shown from left to right is participants treatment with 40 mg Compound 5, 80 mg Compound 5, 160 mg Compound 5, all participants treated with Compound 5, and participants treated with Placebo. Change from baseline was analyzed using a mixed model for repeated measures with terms for treatment group, SOC (Y/N), visit, baseline value, and treatment-by-visit interaction. An unstructured covariance (UN) structure was used.
# […]-IPF study design and objectives.
# The histograms from left to right are 40 mg (n=22) with a LS Mean (SE) change from Baseline in FVC (mL) at Week 12 of −48.6, 80 mg (n=23) with a LS Mean (SE) change from Baseline in FVC (mL) at Week 12 of 22.8, 160 mg (n=22) with a LS Mean (SE) change from Baseline in FVC (mL) at Week 12 of −28.7, 320 mg (n=21) with a LS Mean (SE) change from Baseline in FVC (mL) at Week 12 of 26.8, and placebo (n=31) with a LS Mean (SE) change from Baseline in FVC (mL) at Week 12 of −64.2. Change from baseline in FVC analyzed using a mixed model for repeated measures (MMRM) with terms for treatment group, use of SOC, week and baseline value. FVC=Forced Vital Capacity. mITT=Modified Intent to Treat. * p<0.05. **p<0.01.
# At Day 1, baseline values were collected.
# [2] = test system: participants with idiopathic pulmonary fibrosis (IPF); assay: as above; format: in vivo, human; conditions: for Proportion of Participants with FVCpp Decline ≥10%, ITT, FIG. 20: placebo (N=23) 17.4%; for LS Mean (SE) change from Baseline in FVC at Week 12, ITT, Not on SoC subgroup, FIG. 30: placebo (n=7) −28.2; for Proportion of participants with Absolute FVCpp decline ≥10%, ITT, FIG. 31 / Proportion of participants with Relative FVCpp decline ≥10%, ITT, FIG. 29: placebo (n=31) 12.9%; for LS Mean (SE) change from Baseline in FVC at Week 12, mITT, FIG. 27: placebo (n=31) −64.2
smiles,measurement,setting,value
"COCCN(CCCCc1ccc2c(n1)NCCC2)CC[C@H](Nc1ncnc2ccccc12)C(=O)O [Compound 5, (S)-4-((2-methoxyethyl) (4-(5,6,7,8-tetrahydro-1,8-naphthyridin-2-yl)butyl)amino)-2-(quinazolin-4-ylamino) butanoic acid]","LS Mean (SE) change from Baseline in FVC at Week 12, mITT, FIG. 27","[1]; 40 mg (n=22), placebo (n=31) −64.2",-48.6 mL
same,Treatment effect on FVC with and without use of standard-of-care agents,[1]; 12 weeks,evident; also recorded: observed
same,"LS Mean Change From Baseline in FVC at week 12, On SoC Subgroup (MMRM, ITT)","[2]; 40 mg (N=17), placebo −95.2 mL",-58.3 mL
same,"Proportion of Participants with FVCpp Decline ≥10%, ITT, FIG. 20","[2]; 40 mg (N=22), 12 weeks",18.2%
same,"LS Mean (SE) change from Baseline in FVC at Week 12, ITT, Not on SoC subgroup, FIG. 30",[2]; 40 mg (n=5),-43.5 mL
same,"Proportion of participants with Absolute FVCpp decline ≥10%, ITT, FIG. 31",[2]; 40 mg (n=22),9.1%
same,"Proportion of participants with Relative FVCpp decline ≥10%, ITT, FIG. 29",[2]; 40 mg (n=22),18.2%
same,"Proportion of Participants with FVCpp Decline ≥10%, ITT, FIG. 20","[2]; 80 mg (N=23), 12 weeks",8.7%
same,"LS Mean (SE) change from Baseline in FVC at Week 12, ITT, Not on SoC subgroup, FIG. 30",[2]; 80 mg (n=4),138.5 mL
same,"Proportion of participants with Absolute FVCpp decline ≥10%, ITT, FIG. 31",[2]; 80 mg (n=23),8.7%
same,"Proportion of participants with Relative FVCpp decline ≥10%, ITT, FIG. 29",[2]; 80 mg (n=23),8.7%
same,"LS Mean (SE) change from Baseline in FVC at Week 12, mITT, FIG. 27",[2]; 80 mg (n=23),22.8 mL
same,"Proportion of Participants with FVCpp Decline ≥10%, ITT, FIG. 20","[2]; 160 mg (N=22), 12 weeks",4.5%
same,"LS Mean (SE) change from Baseline in FVC at Week 12, ITT, Not on SoC subgroup, FIG. 30",[2]; 160 mg (n=3),26.4 mL
same,"Proportion of participants with Absolute FVCpp decline ≥10%, ITT, FIG. 31",[2]; 160 mg (n=22),4.5%
same,"Proportion of participants with Relative FVCpp decline ≥10%, ITT, FIG. 29",[2]; 160 mg (n=22),4.5%
same,"LS Mean (SE) change from Baseline in FVC at Week 12, mITT, FIG. 27",[2]; 160 mg (n=22),-28.7 mL
same,Participants with a ≥10% absolute decline in FVC over 24 weeks,[2]; 320 mg,no Compound 5-treated participants
same,"LS Mean (SE) change from Baseline in FVC at Week 12, ITT, Not on SoC subgroup, FIG. 30",[2]; 320 mg (n=4),19.8 mL
same,"Proportion of participants with Absolute FVCpp decline ≥10%, ITT, FIG. 31",[2]; 320 mg (n=21),0%
same,"Proportion of participants with Relative FVCpp decline ≥10%, ITT, FIG. 29",[2]; 320 mg (n=21),0%
same,"LS Mean (SE) change from Baseline in FVC at Week 12, mITT, FIG. 27",[2]; 320 mg (n=21),26.8 mL
same,Participants with a decline of ≥10% in percent predicted FVC (FVCpp),"[2]; 320 mg, 12 weeks",No participants
same,Reduction of the decline from baseline in FVCpp compared to placebo,"[2]; 320 mg, Week 24",68%
same,"Average decrease in FVC at 24 weeks, ITT, SoC subgroup, FIG. 35","[2]; 320 mg, patients on standard of care (pirfenidone or nintedanib), placebo 172.8 mL",35.0 mL
same,"Patients showing an improvement in FVC at 24 weeks, ITT, FIG. 36","[2]; 320 mg, placebo 0%",50%
same,"Average decrease in FVC at 24 weeks, ITT, FIG. 34","[2]; 320 mg, placebo 109.3 mL",35.9 mL
same,"Change in FVC percent predicted from baseline at Week 24, ITT, FIG. 37","[2]; 320 mg, placebo −[…]",−0.8%
same,Proportion of participants with FVCpp decline of ≥10%,"[2]; 40, 80, 160 mg, 12 weeks",dose-dependent reduction
same,"Change in FVC from Baseline to Week 12 (MMRM, ITT)","[2]; pooled Compound 5 groups 40-160 mg (n = 67), placebo −74.1 mL",-15.1 mL
same,Reduction in FVC decline over 12 weeks compared to placebo,[2]; pooled active groups 40-160 mg,80%
